Source: article PMC5268410, “Mode of Action of the Natural Insecticide, Decaleside Involves Sodium Pump Inhibition” (PLoS ONE, 2017)

Columns and labels:
[1] = target: T1, purified Na^+, K^+ -ATPase (porcine cerebral cortex); test: phosphate release from ATP; assay type: biochemical, Sus scrofa; settings: 1.5 mM ATP; Na+ 0.14 M, K+ 14 mM, Mg2+ 3 mM; 37°C
T1 construct: gene ATP1A1; commercial native enzyme purified from porcine cerebral cortex (Sigma); with Sodium/potassium-transporting ATPase subunit beta-1; Sodium/potassium-transporting ATPase subunit beta-2

[2] = target: T1, purified Na^+, K^+ -ATPase (porcine cerebral cortex); test: phosphate release from ATP, ouabain-inhibitable activity; assay type: biochemical, Sus scrofa; settings: 1.5 mM ATP; Na+ 0.14 M, K+ 14 mM, Mg2+ 3 mM; 37°C; 30 min preincubation; competitive with ATP

IC50 [2] [µM] | Compound | IC50 [1] [µM]
– | C[C@@H]1O[C@@H](O[C@H]2C[C@@H](O)[C@]3(CO)[C@H]4[C@H](O)C[C@]5(C)[C@@H](C6=CC(=O)OC6)CC[C@]5(O)[C@@H]4CC[C@]3(O)C2)[C@H](O)[C@H](O)[C@H]1O [Ouabain] | 254
105 | decaleside I | –
95 | decaleside II | –
